Each block holds one compound with its values, some of them ahead of it.
Experiments:
[1] = Remeasurement by XRPD after storage at ambient conditions; type: physicochemical
Procedure: For each experiment, the anti-solvent was added to each solvent vial, with a solvent to anti-solvent ratio of 1:0.25. In the cases where no precipitation occurred, this ratio was increased to 1:1, and if again no precipitation occurred the ratio was increased to 1:4, with a waiting time of 60 minutes between the additions (up to the third addition) and 35 minutes between the third addition and fourth addition. When no crystallization occurred or not enough solids precipitated for separation, samples were kept at 5° C. for 17 hours. The precipitated solids were separated from the liquids by centrifugation and decantation. When decantation could not be applied, the liquid was carefully removed using Pasteur's pipettes. The solids were dried at 200 mbar for 17 hours and analyzed by XRPD and digital imaging. In the cases where no precipitation occurred, the solvents were evaporated at 200 mbar for 17 hours prior to lowering the vacuum to 5 mbar. All obtained solids were analyzed by XRPD and digital imaging. The measuring plates containing the final solid were stored at ambient temperature for 5 weeks. The solid form was assessed again by XRPD. The arrows in Table 18 indicate if the form changed during storage.
A total of 68 slurry experiments were performed with brigatinib both at room temperature (20° C.) and 40° C., using 34 solvents. In all cases, a solvent volume of 250 μL was used. The slurries were stirred for two weeks. At the end of the slurry time, the vials were centrifuged and solids and mother liquids separated. The solids were analyzed wet and dry by XRPD and digital imaging. The measuring plates were then stored at ambient conditions for 3-4 weeks and another XRPD was obtained of the solid, any form change is shown by an arrow.
After completion of the cycling program, the solids were separated from the mother liquids by centrifugation, dried under 200 mbar for 48 hours (2-ethoxyethanol for 283 hours) and analyzed by XRPD and digital imaging. For the applied crystallization conditions and corresponding obtained solid forms, see Table 24. Solid form (or mixture) following the arrow (→) was obtained upon remeasurement by XRPD after storage of the measuring plates at ambient conditions for 5 weeks.
In Table 27, the occurrence of solid forms of brigatinib is given, together with the crystallization methods from which they crystallized and the related solvents. The table provides the results of over 600 experiments with solid forms measured by XRPD wet and/or dry (wet and dry count as separate experiments). In eight cases, no form assignment was made due to low yield. The solid form(s) following the arrow was/were obtained upon remeasurement by XRPD after storage of the measuring plates at ambient conditions for several weeks (2-5 weeks).

[2] = Dehydration of Forms C and D (drying); type: physicochemical
Procedure: In Table 25, a list of drying conditions for Form C are presented together with the final solid form.
In Table 26, a list of drying processes of Form D are presented. Form D under 5 mbar pressure and at 60° C. led to the formation of Form B after 24 h. In some instances, small quantities of Form C were visible on the XRPD patterns, even after 5 days of drying. This observation could be attributed to different particle morphology (fine particles vs. agglomerates/aggregates). […] In general, depending on the time and pressure, Forms B and C occur.

[3] = for Temperature at which (partial) conversion to Form A was observed / Temperature at which conversion to Form A was complete: sample started as the labelled form; for Temperature of dehydration to anhydrous Form B / Temperature of solid-solid transition to Form A: ambient humidity, increasing temperature; for Temperature of solid-solid transition to Form A: not reversible
Procedure: High resolution X-ray powder diffraction patterns disclosed herein were collected on a D8 Advance system in the Brag-Brentano geometry equipped with LynxEye solid state detector. The radiation used for collecting the data was CuKα1 (λ=1.54056 Å) monochromatized by germanium crystal. The patterns were collected in the range of 4-41.5°2θ, with a step in the range of 0.016 °2θ without further processing. All patterns were taken at room temperature, approximately 295 K. The material was placed in a boron glass capillary of 0.3 mm diameter. For variable humidity and variable temperature experiments disclosed herein, an ANSYCO HT chamber was used. The material was placed on a fixed sample holder that was mounted inside the chamber. The humidity was applied locally and varied from 10% to 80% (dew point). The temperature variation rate was 10° C./min.
Data was collected for Forms A, B, C, and D almost immediately after reaching the target temperature (within approximately 10 min).
For Form A, the temperatures used in the experiment were 25, 40, 60, 100, 120, 140, 150, 160, 170, 180, 190, and 200° C. Data collection lasted 20 min per temperature and the stabilization time in between was 10 min.
For Form B, the temperatures used in the experiment were 25, 40, 60, 100, 120, 140, 150, 155, 160, 165, 170, 180, and 190° C. Data collection lasted 45 min per temperature and the stabilization time in between was 10 min.
For Form C, the temperatures used in the experiment were 25, 40, 60, 70, 80, 100, 120, 140, 150, 155, 160, 165, 170, 175, 180, 190, and 200° C. Data collection lasted 40 min per temperature and the stabilization time in between was 10 min.
For Form D, the temperatures used in the experiment were 25, 35, 45, 55, 65, 75, 85, 100, 120, 140, 150, 155, 160, 165, 170, 175, 180, 190, and 200° C. Data collection lasted 10 min for temperatures 25-85° C. with a stabilization time of 1 min, and 40 min for temperatures 100-25° C. with a stabilization time of 10 min.

Variable humidity XRPD = type: physicochemical; settings: 30° C.
Procedure: The temperature variation rate was 10° C./min.
The relative humidity was increased from the starting amount, brought up to the maximum, then dried back to the minimum value. The data collection time was 41 min at each step, time starting after equilibration of the relative humidity.
The peaks shifts were reversible at RH of about 30%. A sample of Form A was then exposed to 80% RH for 15 h. The peaks shifts had occurred after 90 min, and the extent of the shifts remained constant throughout the exposure at 80% RH for 15 h. Upon return to 10% RH, the peaks shifted to their original position. To investigate the amount of water adsorbed, a new sample of Form A was exposed for 2 h at 80% and a TGMS of this sample was measured.
For Form B, the relative humidity was measured at 30° C. The RH % values measured were 10, 30, 50, 60, 65, 70, 75, and 80%. […] At 80% RH the conversion to Form C was completed. Upon desorption, Form C dehydrates to Form B, starting at about 30% RH. At 10% RH the conversion to Form B was completed.
For Form C, a hydrate, the relative humidity was measured at 30° C. The experiment was performed starting at the maximum RH and dehydrated, then rehydrated back up to the maximum value. The RH % values measured were 10, 15, 20, 25, 30, 35, 40, 60, and 80%. Upon desorption, Form C dehydrated to Form B, starting at about 25% RH. At 10% RH, the conversion to Form B was complete. Upon sorption, Form B converted to Form C, starting at about 60% RH. At 80% RH the conversion to Form C was complete. The results are consistent with the corresponding experiments of Form B.
For Form D, a hydrate, the relative humidity was measured at 30° C. The experiment was performed starting at the maximum RH and dehydrated, then rehydrated back up to the maximum value. The RH % values measured were 10, 15, 20, 25, 30, 35, 40, 60, and 80%. […] Form C dehydrated to Form B, starting at about 20% RH. At 10% RH, the conversion to Form B was complete. Upon sorption, Form B converted to Form C, starting at about 40% RH. At 80% RH, the conversion to Form C was complete.

[4] = Vapor diffusion onto solids experiments; type: physicochemical; settings: room temperature, two weeks
Procedure: For the 34 vapor diffusion onto solids experiments, amorphous brigatinib was prepared by grinding the starting material for 4 hours. The vials containing the amorphous brigatinib were left open and placed in closed 40 mL vials containing 2 mL of solvent (see Table 21). The amorphous brigatinib was exposed to solvent vapors at room temperature for two weeks. At the end of the experiment time, the solids were harvested wet and dry and analyzed by XRPD and digital imaging. For the applied crystallization conditions and corresponding obtained solid forms see Table 22.

[5] = sample started as the labelled form

Structure (SMILES): COc1cc(N2CCC(N3CCN(C)CC3)CC2)ccc1Nc1ncc(Cl)c(Nc2ccccc2P(C)(C)=O)n1 [A+L, brigatinib]
- Solid form after storage (XRPD) ([1]; mixtures A+L, ambient conditions for 3 weeks): still a mixture of A+L

Structure (SMILES): COc1cc(N2CCC(N3CCN(C)CC3)CC2)ccc1Nc1ncc(Cl)c(Nc2ccccc2P(C)(C)=O)n1 [Form C, brigatinib]
- final solid form after drying ([2]; 30° C., 1.5 h, ambient pressure): appears to be stable
- final solid form after drying ([2]; 40° C., 1 h, ambient pressure): converted to Form B
- Temperatures at which the form is unstable ([3]; VT-XRPD): higher than 25 °C
- Temperature at which (partial) conversion to Form A was observed ([3]; VT-XRPD): 120 °C
- Temperature at which conversion to Form A was complete ([3]; VT-XRPD): 155 °C
- Temperature of dehydration to anhydrous Form B [3]: about 40 °C
- Temperature of solid-solid transition to Form A [3]: about 150 °C
- RH at which Form B starts to convert to hydrated Form C (sorption) (Variable humidity XRPD; [5]): about 60 % RH
- RH at which conversion to Form B was complete (desorption) (Variable humidity XRPD; [5]): 10 % RH
- RH at which conversion to Form C was complete (sorption) (Variable humidity XRPD; [5]): 80 % RH

Structure (SMILES): COc1cc(N2CCC(N3CCN(C)CC3)CC2)ccc1Nc1ncc(Cl)c(Nc2ccccc2P(C)(C)=O)n1 [Form D, brigatinib]
- final solid form after drying ([2]; 5 mbar, 60° C., 24 h): Form B
- final solid form after drying ([2]; 50 mbar, 60° C., 86 h): mixture of Forms B+C
- final solid form after drying ([2]; 50 mbar, 60° C., 110 h): Form B
- final solid form after drying ([2]; 15 h at 60° C., 5 mbar): C + D
- final solid form after drying ([2]; 20 h (RT), 5 mbar): B + C
- final solid form after drying ([2]; 20 h at 60° C., 5 mbar): B + C
- final solid form after drying ([2]; 28 h at 60° C., 5 mbar): B + C
- final solid form after drying ([2]; 65 h at 60° C., 50 mbar): B + C
- final solid form after drying ([2]; 86 h at 60° C., 50 mbar): B + C
- final solid form after drying ([2]; 5 days at 60° C., 5 mbar): B + C
- final solid form after drying ([2]; 8 days, closed vial at RT, ambient pressure): B + C
- Temperature at which Form D had converted (partially) to hydrated Form C ([3]; VT-XRPD): 35 °C
- Temperature at which Form D had converted to dehydrated Form B ([3]; VT-XRPD): 45 °C
- Temperatures at which the form is unstable ([3]; VT-XRPD): higher than 25 °C
- Temperature at which (partial) conversion to Form A was observed ([3]; VT-XRPD): 120 °C
- Temperature at which conversion to Form A was complete ([3]; VT-XRPD): 150 °C
- Temperature of dehydration to anhydrous Form B [3]: about 40 °C
- Temperature of solid-solid transition to Form A [3]: about 150 °C
- RH at which Form B starts to convert to hydrated Form C (sorption) (Variable humidity XRPD; [5]): about 40 % RH
- RH at which Form C starts to dehydrate to Form B (desorption) (Variable humidity XRPD; [5]): about 20 % RH
- RH at which conversion to Form B was complete (desorption) (Variable humidity XRPD; [5]): 10 % RH
- RH at which conversion to Form C was complete (sorption) (Variable humidity XRPD; [5]): 80 % RH
- Solid form at first measurements (Variable humidity XRPD; 80% RH, freshly prepared Form D): already partially transformed to Form C

Structure (SMILES): COc1cc(N2CCC(N3CCN(C)CC3)CC2)ccc1Nc1ncc(Cl)c(Nc2ccccc2P(C)(C)=O)n1 [Form E, brigatinib]
- Solid form after storage (XRPD) ([1]; several weeks at ambient temperature): may revert to Form A

The next lines start with the values.

- Solid form after storage (XRPD) ([1]; heating or storage at ambient conditions for 8 weeks): desolvated to give Form A
Structure (SMILES): COc1cc(N2CCC(N3CCN(C)CC3)CC2)ccc1Nc1ncc(Cl)c(Nc2ccccc2P(C)(C)=O)n1 [Form F, brigatinib]

- Solid form after storage (XRPD) ([1]; ambient conditions for 5 weeks): had transformed to Form A
Structure (SMILES): COc1cc(N2CCC(N3CCN(C)CC3)CC2)ccc1Nc1ncc(Cl)c(Nc2ccccc2P(C)(C)=O)n1 [Form G, brigatinib]

- Solid form after storage (XRPD) ([1]; ambient conditions for 1-3 weeks): had partially transformed to Form A
Structure (SMILES): COc1cc(N2CCC(N3CCN(C)CC3)CC2)ccc1Nc1ncc(Cl)c(Nc2ccccc2P(C)(C)=O)n1 [Form H, brigatinib]

- Solid form after storage (XRPD) ([1]; mixture of Forms A+J, ambient conditions for 3 weeks): still a mixture of Forms A+J
Structure (SMILES): COc1cc(N2CCC(N3CCN(C)CC3)CC2)ccc1Nc1ncc(Cl)c(Nc2ccccc2P(C)(C)=O)n1 [Forms A+J, brigatinib]

- Solid form after storage (XRPD) ([1]; mixture of Forms A+K, ambient conditions for 3 weeks): still a mixture of Forms A+K
Structure (SMILES): COc1cc(N2CCC(N3CCN(C)CC3)CC2)ccc1Nc1ncc(Cl)c(Nc2ccccc2P(C)(C)=O)n1 [Forms A+K, brigatinib]

- Form dry (XRPD) ([4]; Chloroform vapors, no solids after 2 weeks): A + Am
- Form dry (XRPD) ([4]; Dichloromethane vapors, no solids after 2 weeks): Am
- Form dry (XRPD) ([4]; Water vapors): A + B + C
Structure (SMILES): COc1cc(N2CCC(N3CCN(C)CC3)CC2)ccc1Nc1ncc(Cl)c(Nc2ccccc2P(C)(C)=O)n1 [amorphous brigatinib]

Source: patent publication US11427605B2, “Crystalline forms of 5-chloro-N4-[-2-(dimethylphosphoryl) phenyl]-N2-{2-methoxy-4-[4-(4-methylpiperazin-1-yl) piperidin-1-yl] phenyl} pyrimidine-2,4-diamine” (ARIAD Pharmaceuticals, Inc., priority 2014, dated 2022)
